Data: US9302999B2, “Substituted triazoles as herbicides” (E. I. DU PONT DE NEMOURS AND COMPANY, priority 2012, dated 2016)

Assays:
Format in all cases: in vivo
[1] = test system: winter wheat (Triticum aestivum); assay: Test C pre-/postemergence: winter wheat
Method in brief: (§1)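 Visual injury scored 0–100 (100 = complete control) against untreated controls after 13–15 greenhouse days. Surfactant-containing solvent formulations applied either to soil after sowing (loam/sand) or over 1- to 4-leaf plants, 2–18 cm tall.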

[2] = test system: blackgrass (Alopecurus myosuroides); assay: Test C pre-/postemergence: blackgrass
Method in brief: as §1

[3] = test system: velvetleaf (Abutilon theophrasti); assay: Test A pre-/postemergence: velvetleaf
Method in brief: (§2)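 Injury is scored visually on a scale where 0 means no effect and 100 complete control, comparing treated with untreated plants after approximately ten greenhouse days. Both preemergence and postemergence applications are made at the same time.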

[4] = test system: johnsongrass (Sorghum halepense); assay: Test C pre-/postemergence: johnsongrass
Method in brief: as §1

[5] = test system: chickweed (common chickweed, Stellaria media); assay: Test C postemergence: chickweed
Method in brief: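 Plants at the 1- to 4-leaf stage (2 to 18 cm tall), grown in pots of peat moss/vermiculite planting medium, received postemergence applications of the formulated test chemicals. After 13 to 15 days in a greenhouse, injury was scored visually versus controls from 0 (no effect) to 100 (complete control).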

[6] = test system: barnyardgrass (Echinochloa crus-galli); assay: Test A pre-/postemergence: barnyardgrass
Method in brief: as §2

[7] = test system: pigweed (Amaranthus retroflexus); assay: Test C pre-/postemergence: pigweed
Method in brief: as §1

wild oat (Avena fatua) = assay: Test C pre-/postemergence: wild oat; settings: Postemergence
Method in brief: as §1

rice (Oryza sativa) = assay: Test B flooded paddy: rice; settings: Flood, applied to paddy water at 2-leaf stage, visually evaluated after 13 to 15 days
Method in brief: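 2-leaf plants; pots flooded 3 cm over soil; compound added to paddy water, depth kept constant. Greenhouse 13–15 d. Visual rating vs controls, 0–100 scale (100 = complete control); dash = no result.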

corn (Zea mays) = assay: Test A pre-/postemergence: corn
Method in brief: as §2

[8] = Postemergence, 31 g ai/ha, scale 0 to 100 (0 no effect, 100 complete control)
[9] = Postemergence, 62 g ai/ha, scale 0 to 100 (0 no effect, 100 complete control)
[10] = Postemergence, 125 g ai/ha, scale 0 to 100, 0 no effect, 100 complete control
[11] = Postemergence, 250 g ai/ha, scale 0 to 100 (0 no effect, 100 complete control)
[12] = Preemergence, 31 g ai/ha, scale 0 (no effect) to 100 (complete control)
[13] = Preemergence, 62 g ai/ha, scale of 0 to 100, 0 is no effect, 100 is complete control
[14] = Preemergence, 125 g ai/ha, scale 0 to 100, 0 no effect, 100 complete control
[15] = Preemergence, 250 g ai/ha, scale 0 to 100, 0 no effect, 100 complete control
[16] = Postemergence, 250 g ai/ha, scale 0 to 100
[17] = Postemergence, 125 g ai/ha, 0 to 100 scale, 0 is no effect, 100 is complete control
[18] = Postemergence, 500 g ai/ha, 0 to 100 scale, 0 is no effect, 100 is complete control
[19] = Preemergence, 125 g ai/ha, 0 to 100 scale where 0 is no effect and 100 is complete control
[20] = Preemergence, 500 g ai/ha, 0 to 100 scale (0 no effect, 100 complete control)
[21] = 31 g ai/ha, scale 0 to 100 (0 no effect, 100 complete control)
[22] = 62 g ai/ha, scale 0 to 100 (0 no effect, 100 complete control)
[23] = 125 g ai/ha, scale 0 to 100, 0 no effect, 100 complete control
[24] = 250 g ai/ha, scale 0 to 100 (0 no effect, 100 complete control)

CCCc1nn(-c2ccc(F)c(F)c2)nc1Oc1ccnc(C(F)(F)F)c1 [Compound 172]
40: Plant response rating, Wheat [1, 13]
95: Plant response rating, Blackgrass [2, 13] | Plant response rating, Blackgrass [2, 14] | Plant response rating, Blackgrass [2, 15] | Plant response rating, Johnsongrass [4, 11] | Plant response rating, Johnsongrass [4, 14]
90: Plant response rating, Blackgrass [2, 12] | Plant response rating, Velvetleaf [3, 17] | Plant response rating, Velvetleaf [3, 20] | Plant response rating, Chickweed [5, 23] | Plant response rating, Chickweed ([5]; 250 g ai/ha, scale 0 to 100) | Plant response rating, Barnyardgrass [6, 17] | Barnyardgrass plant response rating [6, 18]
100: Velvetleaf plant response rating [3, 18] | Plant response rating, Pigweed [7, 12] | Plant response rating, Pigweed [7, 13] | Plant response rating, Pigweed [7, 14] | Plant response rating, Pigweed [7, 15]
80: Plant response rating, Velvetleaf [3, 19] | Plant response rating, Oat, Wild (wild oat (Avena fatua); [24])
15: Plant response rating, Wheat [1, 12] | Plant response rating, Oat, Wild (wild oat (Avena fatua); [21])
50: Plant response rating, Rice (0 to 100 scale, 0 is no effect, 100 is complete control) (rice (Oryza sativa); 250 g ai/ha) | Corn plant response rating (corn (Zea mays); [18])
20: Plant response rating, Wheat [1, 9] | Plant response rating, Oat, Wild (wild oat (Avena fatua); [22])
45: Plant response rating, Wheat [1, 14] | Plant response rating, Wheat [1, 15] | Plant response rating, Oat, Wild (wild oat (Avena fatua); [23])
35: Plant response rating, Johnsongrass [4, 8]
85: Plant response rating, Chickweed [5, 22]
98: Plant response rating, Johnsongrass [4, 15] | Plant response rating, Pigweed [7, 8] | Plant response rating, Pigweed [7, 9] | Plant response rating, Pigweed [7, 10] | Plant response rating, Pigweed [7, 11]
75: Plant response rating, Johnsongrass [4, 13]
25: Plant response rating, Wheat [1, 10] | Plant response rating, Blackgrass [2, 9]
65: Plant response rating, Johnsongrass [4, 10] | Plant response rating, Chickweed [5, 21]
60: Plant response rating, Blackgrass [2, 10] | Plant response rating, Blackgrass [2, 16] | Plant response rating, Johnsongrass [4, 9] | Plant response rating, Johnsongrass [4, 12] | Plant response rating, Corn (corn (Zea mays); [20])
30: Plant response rating, Wheat [1, 11] | Plant response rating, Corn (corn (Zea mays); [17]) | Plant response rating, Corn (corn (Zea mays); [19])
10: Plant response rating, Wheat [1, 8] | Plant response rating, Blackgrass [2, 8]

CCCc1nn(-c2ccc(F)cc2F)nc1Oc1ccnc(C(F)(F)F)c1 [Compound 179]
50: Plant response rating, Wheat [1, 14] | Plant response rating, Blackgrass [2, 9] | Plant response rating, Oat, Wild (wild oat (Avena fatua); [24])
20: Plant response rating, Johnsongrass [4, 9] | Plant response rating, Johnsongrass [4, 10] | Plant response rating, Oat, Wild (wild oat (Avena fatua); [22]) | Plant response rating, Corn (corn (Zea mays); [17]) | Plant response rating, Corn (corn (Zea mays); [19])
60: Plant response rating, Blackgrass [2, 16] | Plant response rating, Johnsongrass [4, 13]
80: Plant response rating, Blackgrass [2, 12] | Plant response rating, Velvetleaf [3, 19] | Plant response rating, Chickweed [5, 22]
35: Plant response rating, Oat, Wild (wild oat (Avena fatua); [23]) | Plant response rating, Rice (0 to 100 scale, 0 is no effect, 100 is complete control) (rice (Oryza sativa); 125 g ai/ha)
15: Plant response rating, Wheat [1, 10] | Plant response rating, Wheat [1, 11] | Plant response rating, Wheat [1, 13]
85: Plant response rating, Chickweed [5, 23]
55: Plant response rating, Wheat [1, 15] | Plant response rating, Blackgrass [2, 10] | Plant response rating, Johnsongrass [4, 11]
10: Plant response rating, Wheat [1, 9] | Plant response rating, Johnsongrass [4, 8] | Plant response rating, Oat, Wild (wild oat (Avena fatua); [21])
100: Plant response rating, Blackgrass [2, 13] | Plant response rating, Blackgrass [2, 14] | Plant response rating, Blackgrass [2, 15] | Velvetleaf plant response rating [3, 18] | Plant response rating, Velvetleaf [3, 20] | Plant response rating, Johnsongrass [4, 15] | Plant response rating, Barnyardgrass [6, 20] | Plant response rating, Pigweed [7, 11] | Plant response rating, Pigweed [7, 12] | Plant response rating, Pigweed [7, 13] | Plant response rating, Pigweed [7, 14] | Plant response rating, Pigweed [7, 15]
98: Plant response rating, Pigweed [7, 9] | Plant response rating, Pigweed [7, 10]
90: Plant response rating, Velvetleaf [3, 17] | Plant response rating, Barnyardgrass [6, 17] | Barnyardgrass plant response rating [6, 18] | Plant response rating, Barnyardgrass [6, 19]
5: Plant response rating, Wheat [1, 8] | Plant response rating, Wheat [1, 12] | Plant response rating, Johnsongrass [4, 12]
75: Plant response rating, Chickweed [5, 21]
95: Plant response rating, Johnsongrass [4, 14] | Plant response rating, Chickweed ([5]; 250 g ai/ha, scale 0 to 100) | Plant response rating, Pigweed [7, 8]
30: Plant response rating, Blackgrass [2, 8] | Corn plant response rating (corn (Zea mays); [18]) | Plant response rating, Corn (corn (Zea mays); [20])

CCc1nn(-c2ccc(C(F)(F)F)c(F)c2)nc1Oc1ccnc(C(F)(F)F)c1 [Compound 183]
80: Plant response rating, Blackgrass [2, 12] | Plant response rating, Velvetleaf [3, 20] | Plant response rating, Johnsongrass [4, 14] | Plant response rating, Chickweed [5, 23] | Plant response rating, Barnyardgrass [6, 17]
90: Barnyardgrass plant response rating [6, 18] | Plant response rating, Barnyardgrass [6, 19]
35: Plant response rating, Wheat [1, 14] | Plant response rating, Johnsongrass [4, 13]
50: Plant response rating, Johnsongrass [4, 10] | Corn plant response rating (corn (Zea mays); [18])
55: Plant response rating, Oat, Wild (wild oat (Avena fatua); [23])
10: Plant response rating, Wheat [1, 8] | Plant response rating, Wheat [1, 13] | Plant response rating, Blackgrass [2, 8] | Plant response rating, Johnsongrass [4, 12]
60: Plant response rating, Blackgrass [2, 10] | Plant response rating, Blackgrass [2, 16]
5: Plant response rating, Wheat [1, 12]
45: Plant response rating, Rice (0 to 100 scale, 0 is no effect, 100 is complete control) (rice (Oryza sativa); 125 g ai/ha)
95: Plant response rating, Blackgrass [2, 13] | Plant response rating, Blackgrass [2, 14] | Plant response rating, Johnsongrass [4, 15]
40: Plant response rating, Wheat [1, 15] | Plant response rating, Oat, Wild (wild oat (Avena fatua); [22])
100: Plant response rating, Blackgrass [2, 15] | Plant response rating, Velvetleaf [3, 17] | Velvetleaf plant response rating [3, 18] | Plant response rating, Barnyardgrass [6, 20] | Plant response rating, Pigweed [7, 8] | Plant response rating, Pigweed [7, 10] | Plant response rating, Pigweed [7, 11] | Plant response rating, Pigweed [7, 12] | Plant response rating, Pigweed [7, 13] | Plant response rating, Pigweed [7, 14] | Plant response rating, Pigweed [7, 15]
70: Plant response rating, Velvetleaf [3, 19]
75: Plant response rating, Johnsongrass [4, 11] | Plant response rating, Chickweed [5, 21] | Plant response rating, Chickweed [5, 22]
20: Plant response rating, Wheat [1, 9] | Plant response rating, Wheat [1, 10] | Plant response rating, Blackgrass [2, 9] | Plant response rating, Johnsongrass [4, 8] | Plant response rating, Corn (corn (Zea mays); [17]) | Plant response rating, Corn (corn (Zea mays); [19])
98: Plant response rating, Chickweed ([5]; 250 g ai/ha, scale 0 to 100)
85: Plant response rating, Oat, Wild (wild oat (Avena fatua); [24])
30: Plant response rating, Wheat [1, 11] | Plant response rating, Johnsongrass [4, 9] | Plant response rating, Oat, Wild (wild oat (Avena fatua); [21]) | Plant response rating, Corn (corn (Zea mays); [20])
